{"source": "paper PMC9852173", "about": "“[^111In]In-CP04 as a novel cholecystokinin-2 receptor ligand with theranostic potential in patients with progressive or metastatic medullary thyroid cancer: final results of a GRAN-T-MTC Phase I clinical trial” (European Journal of Nuclear Medicine and Molecular Imaging, 2022)", "key": {"[1]": {"conditions": "in vivo", "experimental": "The duration of [^111In]In-CP04 administration with the low and high mass amount was 5 min and 30 min, respectively. During the injection of the IMP, a dynamic scan of the kidneys and stomach was performed for 30 min (anterior and posterior acquisition). The imaging protocol included a mandatory whole-body scan (WBS) at 1 h, 4 h, 24 h, and 48 h p.i. (table shift speed 12 cm/min). A quantitative SPECT/CT scan of the abdomen was performed at 24 h p.i. as well as an additional non-quantitative SPECT/CT scan of the area where pathological lesions were detected during WBS, if the scan duration was tolerated by the patient. Gelofusine (B. Braun, Melsungen, Germany) was administered as an infusion of 1 mL/kg body weight over 10 min followed by a 3-h infusion of 0.02 mL/kg/min after the injection of the IMPD. Physiological parameters (heart rate, blood pressure, oxygen saturation) were repeatedly measured during and after the [^111In]In-CP04 infusion as per study protocol.\nDuring the [^111In]In-CP04 administration blood samples for dosimetry and pharmacokinetic purposes were taken at the set time intervals according to the study protocol: biodistribution and dosimetry data were acquired based on serial planar and SPECT/CT images, and blood and urine collection at regular time intervals. Urine samples were collected up to 24 h after the tracer injection to determine the bladder wall absorbed dose. On the WBS planar imaging at 1, 4, 24, and 48 h (including standard activity) and quantitative SPECT/CT imaging at 4 and 24 h, the regions of interest (ROI) were drawn over the kidneys and over the lesions when visible. The counts in the ROIs were quantified to activity by cross-calibration with the activity determined in the corresponding volumes of interest (VOIs) drawn on the quantitative SPECT/CT image at 24 h. Time-activity curves were determined by fitting exponential curves through the uptake data. Time integrated activity coefficients (TIAC) were calculated for ^111In and ^177Lu by integration of the TIACs multiplied with their physical decaty functions. The absorbed dose per unit activity in each organ was determined by multiplication with the ^111In and ^177Lu S-values according to the MIRD formalism. The blood time-activity curve was used to estimate the absorbed dose to the bone marrow. The activity concentration in the bone marrow was considered to be equal to the blood activity concentration. The activity and volumes of the urine samples were used to determine the urinary clearance rate, and with the dynamic bladder model, the TIAC in the bladder and the absorbed dose to the bladder wall were determined. The effect on the kidney absorbed dose after co-administration of the nephroprotective agent Gelofusine was evaluated. […]"}, "[2]": {"design": "species or system human", "conditions": "in vivo", "procedure": "The primary objective of the trial was the evaluation of the safety of the administration of [^111In]In-CP04 at low mass amount of 10 μg CP04 and at high mass amount of 50 μg CP04 radiolabelled with 200±10% MBq of ^111In. Therefore, the definition of the type, frequency, severity, timing, and relation to the studied radiopharmaceutical administration of Adverse Events assessed by CTCAE v4.0 was used as primary endpoint to define the safety and tolerability of [^111In]In-CP04.\nDetailed physical examinations with vital sign assessment, 12-lead ECG, and laboratory testing were performed to investigate the safety of intravenous administration of [^111In]In-CP04. The overall safety profile of the tested CCK-2/gastrin receptor ligand as characterized by timing, type, frequency, severity of adverse events (AE), and laboratory abnormalities was based on Common Terminology Criteria for Adverse Events (CTCAE) version 4.0. Since this was a Phase I clinical trial, the project was assumed as having a high-risk potential for the patient, and therefore, special care was taken with the monitoring of the study. In total, eight control visits were carried out over 4 months of the follow-up with physical examination, laboratory testing, and ECG. Additionally, Ct and proCt concentrations were measured after each [^111In]In-CP04 injection at predefined time points (0, 2, 5, 10, 20 min).\n(table shift speed 12 cm/min)."}, "MTC [3]": {"test_system": "MTC", "experiment": "[18F]FDG PET/CT restaging prior to enrolment", "format": "in vivo, human", "conditions": "CEA 80 to 2087 ng/mL", "text": "Sixteen patients with histologically proven and advanced MTC were enrolled in the study based on the specific inclusion and exclusion criteria. [^18F]FDG PET/CT, ceCT, or MRI imaging (initiated at Ct concentrations above 150 pg/mL or clinical suspicion of disease at a specific site) was positive in 12 patients; in four, short calcitonin doubling time (CtDT) with negative conventional imaging (CT of the neck/thorax, abdomen; [^18F]FDG PET/CT) was present.\nIt is well accepted that the molecular imaging modalities outperform conventional imaging (US, CT, and MRI in the present study) in the setting of recurrent disease, in particular PET/CT imaging with [^18F]F-DOPA [19–21]. […] With patient-based detection rate of over 80%, [^111In]In-CP04 slightly outperformed conventional and molecular imaging modalities (detection rate of 75%) in the present study. […] However, the patient population in our study was highly preselected and small, which likely affected the results; moreover, the reported detection rate in the mentioned meta-analysis was likely affected by the relatively low Ct concentrations (above 150 pg/mL in only 73% of patients). […]"}, "MTC [4]": {"test_system": "MTC", "conditions": "meta-analysis; cited from earlier work", "text": "It is well accepted that the molecular imaging modalities outperform conventional imaging (US, CT, and MRI in the present study) in the setting of recurrent disease, in particular PET/CT imaging with [^18F]F-DOPA [19–21]."}, "[5]": {"conditions": "in vivo", "remark": "listed apart in the source", "experimental": "On the WBS planar imaging at 1, 4, 24, and 48 h (including standard activity) and quantitative SPECT/CT imaging at 4 and 24 h, the regions of interest (ROI) were drawn over the kidneys and over the lesions when visible. The counts in the ROIs were quantified to activity by cross-calibration with the activity determined in the corresponding volumes of interest (VOIs) drawn on the quantitative SPECT/CT image at 24 h. Time-activity curves were determined by fitting exponential curves through the uptake data. Time integrated activity coefficients (TIAC) were calculated for ^111In and ^177Lu by integration of the TIACs multiplied with their physical decaty functions. The absorbed dose per unit activity in each organ was determined by multiplication with the ^111In and ^177Lu S-values according to the MIRD formalism. […] The effect on the kidney absorbed dose after co-administration of the nephroprotective agent Gelofusine was evaluated. All dosimetry calculations were performed with the Hermes-OLINDA v2.1 hybrid 2D dosimetry software."}}}
{"smiles": "CSCC[C@H](NC(=O)[C@H](Cc1c[nH]c2ccccc12)NC(=O)CNC(=O)[C@H](Cc1ccc(O)cc1)NC(=O)[C@H](C)NC(=O)[C@@H](CCC(=O)O)NC(=O)[C@@H](CCC(=O)O)NC(=O)[C@@H](CCC(=O)O)NC(=O)[C@@H](CCC(=O)O)NC(=O)[C@@H](CCC(=O)O)NC(=O)[C@@H](CCC(=O)O)NC(=O)CN1CCN(CC(=O)O)CCN(CC(=O)O)CCN(CC(=O)O)CC1)C(=O)N[C@@H](CC(=O)O)C(=O)N[C@@H](Cc1ccccc1)C(N)=O", "note": "[[^111In]In-CP04, [^111In]In-DOTA-(DGlu)6-Ala-Tyr-Gly-Trp-Met-Asp-Phe-NH2, metal not drawn]", "values": [{"measurement": "kidney absorbed dose", "setting": "[1]", "value": "0.044±0.019", "unit": "mSv/MBq"}, {"measurement": "organs with highest dose", "setting": "[1]", "value": "highest dose to urinary bladder, followed by the kidneys and stomach wall"}, {"measurement": "radiation dose for 200 MBq", "setting": "[1]", "value": "about 7 mSv"}, {"measurement": "retention of activity in intestines, stomach and kidneys", "setting": "[1]", "value": "< 1 % of IA"}, {"measurement": "ECG recordings", "setting": "[2]", "value": "No significant changes"}, {"measurement": "laboratory test results during control visits", "setting": "[2]", "value": "did not change significantly"}, {"measurement": "performance status (Karnofsky index)", "setting": "[2]", "value": "did not change"}, {"measurement": "transient tachycardia, duration", "setting": "[2]", "value": "less than 5 minutes"}, {"measurement": "transient tachycardia, heart rate", "setting": "[2]", "value": "up to 128 beats/min"}]}
{"smiles": "OC[C@H]1OC(O)[C@H]([18F])[C@@H](O)[C@@H]1O", "note": "(stereo partly drawn) [[^18F]FDG]", "values": [{"measurement": "PET/CT positivity in the present series", "setting": "MTC [3]", "value": "only positive in three patients"}]}
{"smiles": "N[C@@H](Cc1cc(O)c(O)cc1[18F])C(=O)O", "note": "[[^18F]F-DOPA]", "values": [{"measurement": "pooled patient-based detection rate", "setting": "MTC [4]", "value": 66, "unit": "%"}]}
{"smiles": "CSCC[C@H](NC(=O)[C@H](Cc1c[nH]c2ccccc12)NC(=O)CNC(=O)[C@H](Cc1ccc(O)cc1)NC(=O)[C@H](C)NC(=O)[C@@H](CCC(=O)O)NC(=O)[C@@H](CCC(=O)O)NC(=O)[C@@H](CCC(=O)O)NC(=O)[C@@H](CCC(=O)O)NC(=O)[C@@H](CCC(=O)O)NC(=O)[C@@H](CCC(=O)O)NC(=O)CN1CCN(CC(=O)O)CCN(CC(=O)O)CCN(CC(=O)O)CC1)C(=O)N[C@@H](CC(=O)O)C(=O)N[C@@H](Cc1ccccc1)C(N)=O", "note": "[CP04, DOTA-(DGlu)6-Ala-Tyr-Gly-Trp-Met-Asp-Phe-NH2]", "values": [{"measurement": "projected 177Lu absorbed dose to the kidneys", "setting": "[5]", "value": 0.12, "unit": "Gy/GBq"}]}
